Experimental data: US11932641B1, “Pyrido[4′,3′:4,5]pyrrolo[3,2-b][1,7]naphthyridine compounds as CK2 inhibitors” (KING FAISAL UNIVERSITY, priority 2023, dated 2024)

Key:
[1] = test system: H1299 (lung); assay: In vitro cytotoxic activity (MTT) assay, H1299; format: cell-based; details: Homo sapiens, NCI-H1299; H1299 (lung) cells, 96 hours exposure; read-out: IC50, 50% inhibition of cell proliferation
Experimental: (§1) Compounds 1-12 were screened for their in vitro cytotoxic activity utilizing a 3-(4,5-dimethyl-thiazol-2-yl)-2,5-diphenyltetrazolium bromide (MTT) assay against selected cancer human cell lines consisting of PC3 (prostate), HCT116 (colon), A375 (melanoma), H1299 (lung), MIAPaCa-2 (pancreas), HL60 (leukemia), MCF7 (breast), MDA-MB-231 (breast) (T. Mosmann, J. Immunol. Meth., 1983, 65, 55-63). The cells were cultured at 37° C. in RMPI1640 medium supplemented with 10% fetal bovine serum, 50 IU/mL penicillin, and 50 μg/mL streptomycin in a 5% CO2 incubator. All cells were sub-cultured 3 times/week by trypsinisation. Viable cells were seeded and allowed to adhere for 12 h before a test drug was added in 96-well plates at an initial density of 1.0×10^5 cells/mL. Tumour cell lines were separately exposed to various concentrations of the tested compounds followed by incubation at a temperature of 37° C. during 96 h inside a medium of fresh RMPI 1640. Cells were subsequently incubated at 37° C. using MTT at 0.5 mg/mL during 4 h. After removal of supernatant, formazan crystals were dissolved in isopropanol and the optical density was measured at 570 nm. CX-4945 was used as a positive control.

[2] = test system: HCT116 (colon); assay: In vitro cytotoxic activity (MTT) assay, HCT116; format: cell-based; details: Homo sapiens, HCT-116; HCT116 (colon) cells, 96 hours exposure; read-out: IC50, 50% inhibition of cell proliferation
Experimental: as §1

[3] = test system: HL60 (leukemia); assay: In vitro cytotoxic activity (MTT) assay, HL60; format: cell-based; details: Homo sapiens, HL-60; HL60 (leukemia) cells, 96 hours exposure; read-out: IC50, 50% inhibition of cell proliferation
Experimental: as §1

[4] = test system: MIAPaCa-2 (pancreas); assay: In vitro cytotoxic activity (MTT) assay, MIAPaCa-2; format: cell-based; details: Homo sapiens, MIA PaCa-2; MIAPaCa-2 (pancreas) cells, 96 hours exposure; read-out: IC50, 50% inhibition of cell proliferation
Experimental: as §1

[5] = target: T1, recombinant human CK2 (RRββ-holoenzyme) (Homo sapiens, UniProt P68400); assay: CK2 kinase assay (33P-ATP, filter plate); format: biochemical; details: final ATP 15 μM, 10 min at 30° C.; read-out: protein kinase CK2 IC50
T1 construct: purchased Millipore
Experimental: CK2 Kinase Assay was conducted using the protocol as described in Pierre F. et al; J. Med Chem. 2011, 54, 635-654. The tested compounds in aqueous solution were added at a volume of 10 μL to a reaction mixture comprising 10 μL of assay dilution buffer (ADB; 20 mM MOPS, pH 7.2, 25 mM β-glycerol phosphate, 5 mM EGTA, 1 mM sodium orthovanadate, and 1 mM dithiothreitol), 10 μL of substrate peptide (RRRDDDSDDD, dissolved in ADB at a concentration of 1 mM), 10 μL of recombinant human CK2 (RRββ-holoenzyme, 25 ng dissolved in ADB; Millipore). Reactions were initiated by the addition of 10 μL of ATP solution (90% 75 mMMgCl2, 75 μM ATP (final ATP concentration: 15 μM) dissolved in ADB; 10% [γ-33P] ATP (stock 1 mCi/100 μL; 3000 Ci/mmol (Perkin-Elmer) and maintained for 10 min at 30° C. The reactions were quenched with 100 μL of 0.75% phosphoric acid and then transferred to and filtered through a phosphor cellulose filter plate (Millipore). After washing each well five times with 0.75% phosphoric acid, the plate was dried under vacuum for 5 min and, following the addition of 15 μL of scintillation fluid to each well, the residual radioactivity was measured using a Wallac […]. The IC50 values were derived from eight concentrations of test inhibitors.

[6] = test system: MCF7 (breast); assay: In vitro cytotoxic activity (MTT) assay, MCF7; format: cell-based; details: Homo sapiens; MCF7 (breast) cells, 96 hours exposure; read-out: IC50, 50% inhibition of cell proliferation
Experimental: as §1

[7] = test system: PC3 (prostate); assay: In vitro cytotoxic activity (MTT) assay, PC3; format: cell-based; details: Homo sapiens, Prostate cell; PC3 (prostate) cells, 96 hours exposure; read-out: IC50, 50% inhibition of cell proliferation
Experimental: as §1

[8] = test system: A375 (melanoma); assay: In vitro cytotoxic activity (MTT) assay, A375; format: cell-based; details: Homo sapiens, A-375; A375 (melanoma) cells, 96 hours exposure; read-out: IC50, 50% inhibition of cell proliferation
Experimental: as §1

[9] = test system: MDA-MB-231 (breast); assay: In vitro cytotoxic activity (MTT) assay, MDA-MB-231; format: cell-based; details: Homo sapiens; MDA-MB-231 (breast) cells, 96 hours exposure; read-out: IC50, 50% inhibition of cell proliferation
Experimental: as §1

T1 sequence (P68400 whole entry): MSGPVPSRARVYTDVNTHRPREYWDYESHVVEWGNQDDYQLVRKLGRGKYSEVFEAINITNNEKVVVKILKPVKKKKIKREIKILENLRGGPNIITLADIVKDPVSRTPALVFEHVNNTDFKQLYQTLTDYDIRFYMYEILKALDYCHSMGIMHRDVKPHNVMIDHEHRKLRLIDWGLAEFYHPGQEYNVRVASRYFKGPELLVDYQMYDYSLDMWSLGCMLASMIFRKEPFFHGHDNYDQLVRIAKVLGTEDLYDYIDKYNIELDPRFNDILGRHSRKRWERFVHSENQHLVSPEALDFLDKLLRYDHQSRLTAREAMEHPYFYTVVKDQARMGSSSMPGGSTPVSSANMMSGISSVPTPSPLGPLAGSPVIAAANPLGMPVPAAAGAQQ
T1 sequence (P67870 whole entry partner): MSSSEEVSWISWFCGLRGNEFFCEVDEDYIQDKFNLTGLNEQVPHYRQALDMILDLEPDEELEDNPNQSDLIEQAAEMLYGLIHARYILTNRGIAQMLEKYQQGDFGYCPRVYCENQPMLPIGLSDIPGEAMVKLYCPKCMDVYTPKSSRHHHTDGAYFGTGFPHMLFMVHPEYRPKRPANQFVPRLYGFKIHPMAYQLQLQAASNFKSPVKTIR

Clc1ccc(Nc2c3ccncc3nc3c2[nH]c2cnccc23)cc1 [Compound 1, N-(4-chlorophenyl)-11H-pyrido[4′,3′:4,5]pyrrolo[3,2-b][1,7]naphthyridin-10-amine]
IC50 [1]: 2400 nM
IC50 [2]: 1500 nM
IC50 [3]: 3100 nM
IC50 [4]: 1600 nM
IC50 [5]: 5 nM
IC50 [6]: 8500 nM
IC50 [7]: 1300 nM
IC50 [8]: 3400 nM
IC50 [9]: 5200 nM
